Where two headings read alike, the source gives them in different places.
What was measured:
[1] = clinical; conditions: for half-life: human, in vivo, iv
Procedure: (§1) The assays were performed in triplicate. […] For each determination, an identical volume of preimmune serum was assayed as a control for antibody binding. […] After an incubation period of 1 hr at 25° C., 100 μl of goat-antirabbit 1 gG antiserum was added to each tube with 50 μl of normal rabbit 1 gG as a carrier for the precipitation. The tubes were again incubated at 25° C. for 30 min. The precipitates were washed twice in Tris buffer and spun in a Sorvall table-top centrifuge at 2,000 rpm×10 min. After the supernatant was decanted, the precipitates were dissolved in 1 ml of 1% sodium dodecyl sulfate. Bound radioactivity was counted in the presence of 10 ml of Aquasol-2 (New England Nuclear) in a Packard Tricarb liquid scintillation counter with a counting efficiency of 40%.
(§2) The assays to determine the competitive binding of potentially cross-reactive drugs were performed on sera obtained from patients on long-term maintenance with single drugs; digoxin, imipramine and alphamethyldopa, respectively.
To further document the reproducibility of the assay, each serum sample from a single subject was assayed in replicate fashion at dilutions of 1:2, 1:3 and 1:4 in pooled human serum.

[2] = result in words, cited from earlier work
[3] = tested on: exercise heart rate (patients); experiment: Cardiovascular stress testing of patients on oral propranolol, serum propranolol concentration vs. heart rate and blood pressure; format: in vivo, human
Procedure: The assays were performed in triplicate. […] The ^3 H-(-)-propranolol was obtained from New England Nuclear Corporation. […] The standard curve for the radioimmunoassay was derived from triplicate assay of pooled human serum containing varying amounts of added (±) propranolol HCl. For each determination, an identical volume of preimmune serum was assayed as a control for antibody binding. […] After an incubation period of 1 hr at 25° C., 100 μl of goat-antirabbit 1 gG antiserum was added to each tube with 50 μl of normal rabbit 1 gG as a carrier for the precipitation. The tubes were again incubated at 25° C. for 30 min. The precipitates were washed twice in Tris buffer and spun in a Sorvall table-top centrifuge at 2,000 rpm×10 min. After the supernatant was decanted, the precipitates were dissolved in 1 ml of 1% sodium dodecyl sulfate. Bound radioactivity was counted in the presence of 10 ml of Aquasol-2 (New England Nuclear) in a Packard Tricarb liquid scintillation counter with a counting efficiency of 40%.
All subjects were submitted to standard, graded exercise according to the Bruce protocol, and 36 of 54 patients attained at least Stage II of exertion (greater than 6 min of sustained exertion).

[4] = target: antibody (antiacebutolol amine immune serum); experiment: Competitive binding inhibition of 3H-(-)-propranolol to anti-acebutolol amine antibody (radioimmunoassay); parameters: species or system rabbit; conditions: for competitive inhibition of 3H-propranolol binding to the antibody: sera containing the drug
Procedure: Acebutolol amine having the formula: [drawing 3] was covalently linked to lysozyme. 150 mg of acebutolol amine was dissolved in 1.0 N HCl and was cooled to 0° C. in a salt ice bath. To this solution was added 1 cc of 0.5 M NaNO2 also at 0° C. and the resultant mixture was allowed to stand at 0° C. for 10 min. A mixture of 200 mg crystalline lysozyme in 15% aqueous sodium carbonate at 0° C. was added to 2.0 cc of the above mixture. […] The resultant product was dialyzed against phosphate buffered saline and the purified conjugate was frozen in dry ice-acetone and stored at -20° C. The product then was thawed and centrifuged for 10 min at 3000 rpm. The supernatant was recovered and mixed with Tris buffer, pH 7 at a concentration of 30 mg/ml.
Albino rabbits were immunized with this conjugate at monthly intervals for four months. Each rabbit received intracutaneous toepad injections of 0.5 mg of protein emulsified in complete Freund's adjuvant.
as §1, §2

[5] = tested on: beta-adrenergic receptor; conditions: metabolite of propranolol, result in words, cited from earlier work

CC(C)NCC(O)COc1cccc2ccccc12 (racemic) [propranolol]
half-life ([1]; range of serum half-life observed in subjects): 5 to 7.5 h | half-life ([1]; serum half-life): ~7.5 h | time the drug remains detectable in serum ([1]; single intravenous administration): six to twelve | conversion by the liver to 4 OH-propranolol ([2]; oral administration): a significant fraction of the administered dose is converted by the liver to 4 OH-propranolol | bio-availability [2]: markedly variable bio-availibility | correlation between increases in blood pressure or heart rate and serum concentration ([3]; 54 patients, exercise, result in words): lack of correlation | relationship of basal heart rate to plasma concentration, response to exercise, or administered dose ([3]; 54 patients, long-term oral propranolol, result in words): failed to show any significant relationship | p of linear relationship between exercise response (percent of maximal predicted heart rate for age) and serum propranolol concentration ([3]; FIG. 3, linear regression analysis): < 0.0005 | average daily dose in adequately blocked patients ([3]; adequately blocked patients, oral): 2.45 ± 2.89 mg/kg/day | p of difference in average daily dose, adequately vs. inadequately blocked patients ([3]; human, in vivo): < 0.001 | average daily dose in inadequately blocked patients ([3]; inadequately blocked patients, oral): 1.14±0.62 | patients who achieved an exercise response of <67% of predicted ([3]; serum level <250 ng/ml): 3/33 | patients with exercise response consistent with adequate beta-adrenergic blockade ([3]; serum level >250 ng/ml): 10/16 | correlation of serum propranolol and heart rate response to maximal exercise ([3]; study of 56 patients, result in words): highly significant

CC(C)NCC(O)COc1ccc(O)c2ccccc12 (stereo not drawn) [4-hydroxypropranolol]
detectability of metabolite in serum [2]: detectable in serum only after the oral route of drug administration | Kd ([4]; 3H-(-)-propranolol displacement from antibody, read-out: apparent KD (competitive binding inhibition)): 0.01 µM | biological activity at the beta-adrenergic receptor [5]: equipotent beta adrenergic receptor antagonist | biological activity at the beta-adrenergic receptor ([5]; listed as 4 OH-propranolol): retains full biological activity

NC[C@H](O)c1ccc(O)c(O)c1 [(-)-norepinephrine]
competitive inhibition of 3H-propranolol binding to the antibody ([4]; result in words): failed to produce significant competitive inhibition

CC(=O)c1ccc(N)cc1OCC(O)CNC(C)C (stereo not drawn) [acebutolol amine]
competitive binding inhibition curve compared with propranolol ([4]; FIG. 1, result in words): yields a curve analogous to the displacement binding observed with propranolol

C[C@](N)(Cc1ccc(O)c(O)c1)C(=O)O [alpha methyldopa]
competitive inhibition of 3H-propranolol binding to the antibody ([4]; result in words): failed to produce significant competitive inhibition

C[C@H]1O[C@@H](O[C@H]2[C@@H](O)C[C@H](O[C@H]3[C@@H](O)C[C@H](O[C@H]4CC[C@@]5(C)[C@H](CC[C@@H]6[C@@H]5C[C@@H](O)[C@]5(C)[C@@H](C7=CC(=O)OC7)CC[C@]65O)C4)O[C@@H]3C)O[C@@H]2C)C[C@H](O)[C@@H]1O [digoxin]
competitive inhibition of 3H-propranolol binding to the antibody ([4]; result in words): failed to produce significant competitive inhibition

NCCc1ccc(O)c(O)c1 [dopamine]
competitive inhibition of 3H-propranolol binding to the antibody ([4]; result in words): failed to produce significant competitive inhibition

CN(C)CCCN1c2ccccc2CCc2ccccc21 [imipramine]
competitive inhibition of 3H-propranolol binding to the antibody ([4]; result in words): failed to produce significant competitive inhibition
